Experimental data published in ChEMBL document CHEMBL1255343, “Activities of daptomycin and comparative antimicrobials, singly and in combination, against extracellular and intracellular Staphylococcus aureus and its stable small-colony variant in human monocyte-derived macrophages and in broth” (2008).
Converted amounts (≈) assume the structure as drawn. The source made the active and inactive calls. The rule behind the calls is not given here.

How the values were obtained:
Staphylococcus aureus [1] = test: Antimicrobial activity against Staphylococcus aureus 2547 small colony variants; assay type: functional
Staphylococcus aureus [2] = test: Antimicrobial activity against Staphylococcus aureus 2548; assay type: functional
Staphylococcus aureus [3] = test: Antimicrobial activity against extracellular Staphylococcus aureus 2546 after 4 hrs in MH-II broth; assay type: functional, organism-based
Staphylococcus aureus [4] = test: Antimicrobial activity against Staphylococcus aureus 2546; assay type: functional
Staphylococcus aureus [5] = test: Antimicrobial activity against extracellular Staphylococcus aureus 2549 small colony variants after 4 hrs in MH-II broth; assay type: functional, organism-based
Staphylococcus aureus [6] = test: Antimicrobial activity against Staphylococcus aureus 2549 small colony variants; assay type: functional
Staphylococcus aureus [7] = test: Antimicrobial activity against intracellular Staphylococcus aureus 2548 infected in human monocyte-derived macrophages after 48 hrs; assay type: functional, organism-based
Staphylococcus aureus [8] = test: Antimicrobial activity against extracellular Staphylococcus aureus 2548 after 4 hrs in MH-II broth; assay type: functional, organism-based

| Compound | MIC (Staphylococcus aureus [1]) | MIC (Staphylococcus aureus [2]) | Activity (Staphylococcus aureus [3]) | MIC (Staphylococcus aureus [4]) | Activity (Staphylococcus aureus [5]) | MIC (Staphylococcus aureus [6]) | Activity (Staphylococcus aureus [7]) | Activity (Staphylococcus aureus [8]) |
| --- | --- | --- | --- | --- | --- | --- | --- | --- |
| CCCCCCCCCC(=O)N[C@@H](Cc1c[nH]c2ccccc12)C(=O)N[C@H](CC(N)=O)C(=O)N[C@@H](CC(=O)O)C(=O)N[C@@H]1C(=O)NCC(=O)N[C@@H](CCCN)C(=O)N[C@@H](CC(=O)O)C(=O)N[C@H](C)C(=O)N[C@@H](CC(=O)O)C(=O)NCC(=O)N[C@H](CO)C(=O)N[C@@H]([C@H](C)CC(=O)O)C(=O)N[C@@H](CC(=O)c2ccccc2N)C(=O)O[C@@H]1C | 1 µg/mL (≈ 0.617 µM) | 1 µg/mL (≈ 0.617 µM) | Active | 1 µg/mL (≈ 0.617 µM) | Active | 0.5 µg/mL (≈ 0.309 µM) | Active | Active |
| CCC[C@@H]1C[C@@H](C(=O)N[C@@H]([C@H]2O[C@H](SC)[C@H](O)[C@@H](O)[C@H]2O)[C@H](C)Cl)N(C)C1 [CLINDAMYCIN] | 0.25 µg/mL (≈ 0.588 µM) | 0.06 µg/mL (≈ 0.141 µM) |  | 0.125 µg/mL (≈ 0.294 µM) |  | 0.25 µg/mL (≈ 0.588 µM) |  |  |
| Cc1onc(-c2ccccc2)c1C(=O)N[C@@H]1C(=O)N2[C@@H]1SC(C)(C)[C@@H]2C(=O)O [OXACILLIN] | 0.5 µg/mL (≈ 1.25 µM) | 0.25 µg/mL (≈ 0.623 µM) |  | 0.25 µg/mL (≈ 0.623 µM) |  | 0.5 µg/mL (≈ 1.25 µM) |  |  |
| CO[C@H]1/C=C/O[C@@]2(C)Oc3c(C)c(O)c4c(O)c(c(/C=N/N5CCN(C)CC5)c(O)c4c3C2=O)NC(=O)/C(C)=C\C=C\[C@H](C)[C@H](O)[C@@H](C)[C@@H](O)[C@@H](C)[C@H](OC(C)=O)[C@@H]1C [RIFAMPIN] | 0.06 µg/mL (≈ 0.0729 µM) | 0.125 µg/mL (≈ 0.152 µM) |  | 0.125 µg/mL (≈ 0.152 µM) |  | 0.06 µg/mL (≈ 0.0729 µM) | Active |  |
| GENTAMICIN | 4 µg/mL | 8 µg/mL | Active | 2 µg/mL | Active | 16 µg/mL | Active | Active |
